Results from patent publication US20120283099A1, “CONTROLLING PLANTHOPPERS” (priority 2011, published 2012).
Values joined by “and” are separate entries in the source; they are usually repeats but may differ in a detail not shown here. Identical values can stand only once.

Test system: brown planthoppers, Nilaparvata lugens
Assay: Field efficacy on brown planthopper in transplanted rice (small-plot trials A-D)
Assay type: in vivo
Details: Sulfoxaflor 50 g/ha, Buprofezin 100 g/ha, mixture 50 + 100 g/ha
Procedure: Applications were made to transplanted rice, Oryza sativa, using small-plot efficacy methods. Chemicals were diluted in water and all treatments were applied using a backpack sprayer calibrated to deliver 500 liters of spray solution per hectare. Experimental plots measured 5 by 10 meters and each treatment was replicated three times in each trial. At the specified intervals after treatment, brown planthoppers, Nilaparvata lugens, were counted in 10 randomly selected hills per plot. Data were transformed to percent control relative to the untreated plots, then subjected to analysis of variance, and means were separated using Tukey's HSD (p=0.1). Expected control was calculated using the method of Colby and compared to observed control. See the Table Section for the results of the Field Trials.

[1] = Trial A, 1 DAT, relative to untreated plots

SMILES	% Control [1]	% Control (Trial A, 3 DAT)	% Control (Trial A, 7 DAT)	% Control (Trial A, 10 DAT)	% Control (Trial A, 15 DAT)	% Control (Trial B, 1 DAT)	% Control (Trial B, 3 DAT)	% Control (Trial B, 7 DAT)	% Control (Trial B, 10 DAT)	% Control (Trial B, 15 DAT)	% Control (Trial C, 1 DAT)	% Control (Trial C, 3 DAT)	% Control (Trial C, 7 DAT)	% Control (Trial C, 10 DAT)	% Control (Trial C, 15 DAT)	% Control (Trial D, 1 DAT)	% Control (Trial D, 7 DAT)	% Control (Trial D, 10 DAT)	% Control (Trial D, 15 DAT)
CC(c1ccc(C(F)(F)F)nc1)S(C)(=O)=NC#N (centres unmarked) [Sulfoxaflor]	11.2 b % and 11.2%	43.5 c % and 43.5%	32.8 c % and 32.8%	6.8 c % and 6.9%	19.3 c % and 19.3%	29.4 a % and 29.4%	63.6 b % and 63.6%	62.8 c % and 62.8%	48.8 b % and 48.8%	50.3 c % and 50.3%	13.5 bc % and 13.5%	42.4 c % and 42.2%	57.9 b % and 57.9%	9.6 b % and 9.6%	30.1 c % and 30.1%	71.4 b % and 71.4%	72.9 b % and 72.9%	57.5 b % and 57.5%	51.9 b % and 51.9%
CC(C)N1C(=O)N(c2ccccc2)CS/C1=N\C(C)(C)C [Buprofezin]	34.9 a % and 34.9%	72.4 b % and 72.4%	72.4 b % and 72.4%	49.4 b % and 49.4%	49.0 b % and 49.0%	24.5 a % and 24.5%	73.0 b % and 73.0%	80.2 b % and 80.2%	63.2 b % and 63.2%	67.7 b % and 67.7%	31.2 ab % and 31.2%	63.2 b % and 63.2%	61.2 b % and 61.2%	31.2 b % and 31.2%	47.8 b % and 47.8%	78.2 b % and 78.2%	66.0 b % and 66.0%	34.0 c % and 34.0%	47.6 b % and 47.6%
